Data on two compounds can be found in PMC11199504, “New hemisynthetic derivatives of sphaeropsidin phytotoxins triggering severe endoplasmic reticulum swelling in cancer cells” (Scientific Reports, 2024).

Data set [1] deals with 60 cancer cell line panel. Kind of data set: NCI 60 cancer cell line panel testing. The class given is cell-based. An excerpt:
Cell lines are grouped by cancer type [origin]. Determination of the concentration that reduced by 50 % the
Log10 differences are represented by the bars. If a cell line is more sensitive , the bar is on the right , if it is less
sensitive, the bar is on the left. Similar data are represen ted for the 50 % lethal concentration [LC 50] of each
(1 picture or pasted object on this page, not shown here)

In data set [2] the target is chymotrypsin-like activity of the proteasome (Homo sapiens, UniProt P28074). Kind of data set: Cellular proteasomal chymotrypsin-like activity. The class given is cell-based. Particulars: 13 at 1 µM, 6 h of treatment, both SKMEL-28 and U373. On the procedure:
The chemotrypsin-like, trypsin-like and caspase-like activities of the proteasome were evaluated in cells with the G8660, G8861 and G8761 kits respectively according to the manufacturer’s instructions (Promega, USA). Briefly, the assays are based on the use of short amino-acid sequences coupled with luciferin and that can be specifically cleaved by each catalytic unit of the proteasomal complex. For this purpose, cells were seeded in 96 well plates 24 h before their treatment with 1 (5 µM), 13 (1 µM) for 6 h or with the positive control MG132 (1 µM) for 24 h. At the end of the treatments, cells were washed three times with PBS and permeabilized with digitonin (0.5 mg/mL; 50 µL per well) under shaking for 10 min. Then, 50 µL of a mixture of the substrate of interest and luciferase were added for 15 min under slow shaking. Luminescence levels quantified with the Active-Glo LR-100 luminometer (DSLabs, Suisse) were normalized according the number of viable cells evaluated in parallel in the same conditions by means of MTT assay.

Data set [3] relates to U373 cells. Kind of data set: Annexin-V/propidium iodide staining by flow cytometry. The class given is cell-based, human. Particulars: 24 h of treatment. On the procedure: (§1) Cell death induced by compounds 1 and 13 was evaluated by means of the double annexin-V/propidium iodide staining by flow cytometry with the FITC Annexin V apoptosis detection kit from BD Pharmingen (USA) according to the manufacturer’s instructions. Briefly, cells were cultured and treated in 25 cm^2 flasks. At the end of the treatment, all cells (adherent and floating cells) were collected, washed and resuspended at 10^6 cells/mL. 100 µL of the cell suspension were stained with 5 µL of FITC-annexin-V and 5 µL of propidium iodide for 15 min at rt in the dark. 400 µL of buffer were then added before data acquisition of 10,000 events per sample (Gallios, Beckman Coulter, Belgium). Caspase activation is usually evaluated to confirm or not the apoptotic feature of the cell death induced. For this purpose, we used the caspase-3, -8 and 9 multiplex assay (Ab219915, Abcam, UK) following manufacters’ instructions. In this assay, cells were exposed to short peptidic sequences linked to different fluorochromes and that could be specifically cleaved by each of these caspases. This assay thereby allowed simultaneous evaluation of the three caspase activities thanks to the quantification of the three fluorophores released in a SynergyMX plate fluorimeter (Biotek, USA).
Background: Flow cytometry measures light scatter and fluorescence of single cells or particles in a stream.

Data set [4] relates to caspase-3. Kind of data set: Caspase multiplex assay, caspase-3 in SKMEL-28. The conditions noted are these: SKMEL-28 cells, 15 h of treatment. The class given is cell-based, human. The procedure: as §1
For data set [5], the system named is caspase-8. As to the kind of experiment: Caspase multiplex assay, caspase-8 in SKMEL-28. The class given is cell-based, human. Particulars: SKMEL-28 cells, 15 h of treatment. On the procedure: as §1
In data set [6] the test system is caspase-3, -8 and 9. As to the kind of experiment: Caspase-3, -8 and -9 multiplex assay in U373. The class given is cell-based, human. Particulars: U373 cells, until 24 h of treatment. On the procedure:
as §1

Data set [7] deals with SKMEL-28 and U373 cells. Kind of data set: Reversibility assay. The class given is cell-based, human. Particulars: after 6 h of treatment, both cell lines. On the procedure:
The reversibility of the effects induced by compounds 13 was evaluated through qualitative microscopic observation of the cell cultures (morphology and confluence of the cell culture) over time after having been exposed or not to the compound for 1, 3 or 6 h. Negative control corresponds to untreated cells while positive control corresponds to cells treated with 13 continuously over the whole experiment. Briefly, 6 × 10^4 cells per well were seeded in 6 well plates and incubated for 24 h before their use. Culture medium was then replaced by fresh medium with or without compound 13. After 1, 3 or 6 h of treatment, cells were washed and the culture medium was renewed. Pictures were taken at different time points starting at t = 0 when the treatment was applied to the cells, 6 h, 24 h and 72 h thereafter.

The test system of data set [8] is NKCC. The conditions noted are these: cited from earlier work.
Details of data set [9]: method as in PMID 33016969. Particulars: cited from earlier work.

chymotrypsin-like activity of the proteasome, sequence (P28074 60-263): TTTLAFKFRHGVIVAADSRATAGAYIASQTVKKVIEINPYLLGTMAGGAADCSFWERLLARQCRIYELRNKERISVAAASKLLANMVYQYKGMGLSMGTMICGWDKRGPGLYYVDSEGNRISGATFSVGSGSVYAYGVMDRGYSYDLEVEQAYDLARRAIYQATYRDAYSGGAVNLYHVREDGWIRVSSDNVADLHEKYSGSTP

Broadly, the GI50 is the concentration that inhibits growth by half. By inhibition is commonly meant the percentage by which the read-out fell short of the control. High values mean a strong effect, low ones a weak effect. Turning to `CC1(C=CCCCc2ccc3ccc4cccc5ccc2c3c45)C=C2C(=O)C3(O)OC(=O)C4(CCCC(C)(C)C34)C2(O)CC1` (stereo not shown) [Compound 13], the CC50 in [1] (NCI 60 cancer cell line panel, read-out: global mean LC50) turned out to be 1.5 µM. The GI50 in [1] (NCI, 48 h of culture, read-out: mean GI50 against the 60 cancer cell line panel) was 0.19 µM. The inhibition at 1 µM in data set [2] was over 60%. Also, the “cells positive to annexin-V” value in data set [3] was “more than 60%”. The caspase-3 activity result in data set [4] is on record as “markedly increased”. In data set [5], the caspase-8 activity entry is “markedly increased”. Besides, in [6], the caspase activation entry is “no caspase activation could be detected”. In [7], the reversibility of effects entry is reported as “irreversible”.

Turning to `C=C[C@]1(C)C=C2C(=O)[C@@]3(O)OC(=O)[C@@]4(CCCC(C)(C)[C@H]34)[C@@]2(O)CC1` [Compound 1, sphaeropsidin A, reference compound], the “concentration inhibiting NKCC activity” value in data set [8] is given as “low micromolar”. The “stability in physiological medium” value in data set [9] is listed as “instability”.
